The target of assay [1] is Tyrosine-protein kinase JAK2 (Homo sapiens, UniProt O60674). Put plainly: Inhibition of JAK2 (unknown origin) preincubated for 60 mins followed by reagent A addition and measured after 60 mins in presence of ATP by using microplate reader method.
The target of assay [2] is T1, Protein deacetylase HDAC6 (Homo sapiens) (UniProt Q9UBN7).
T1 sequence (whole entry): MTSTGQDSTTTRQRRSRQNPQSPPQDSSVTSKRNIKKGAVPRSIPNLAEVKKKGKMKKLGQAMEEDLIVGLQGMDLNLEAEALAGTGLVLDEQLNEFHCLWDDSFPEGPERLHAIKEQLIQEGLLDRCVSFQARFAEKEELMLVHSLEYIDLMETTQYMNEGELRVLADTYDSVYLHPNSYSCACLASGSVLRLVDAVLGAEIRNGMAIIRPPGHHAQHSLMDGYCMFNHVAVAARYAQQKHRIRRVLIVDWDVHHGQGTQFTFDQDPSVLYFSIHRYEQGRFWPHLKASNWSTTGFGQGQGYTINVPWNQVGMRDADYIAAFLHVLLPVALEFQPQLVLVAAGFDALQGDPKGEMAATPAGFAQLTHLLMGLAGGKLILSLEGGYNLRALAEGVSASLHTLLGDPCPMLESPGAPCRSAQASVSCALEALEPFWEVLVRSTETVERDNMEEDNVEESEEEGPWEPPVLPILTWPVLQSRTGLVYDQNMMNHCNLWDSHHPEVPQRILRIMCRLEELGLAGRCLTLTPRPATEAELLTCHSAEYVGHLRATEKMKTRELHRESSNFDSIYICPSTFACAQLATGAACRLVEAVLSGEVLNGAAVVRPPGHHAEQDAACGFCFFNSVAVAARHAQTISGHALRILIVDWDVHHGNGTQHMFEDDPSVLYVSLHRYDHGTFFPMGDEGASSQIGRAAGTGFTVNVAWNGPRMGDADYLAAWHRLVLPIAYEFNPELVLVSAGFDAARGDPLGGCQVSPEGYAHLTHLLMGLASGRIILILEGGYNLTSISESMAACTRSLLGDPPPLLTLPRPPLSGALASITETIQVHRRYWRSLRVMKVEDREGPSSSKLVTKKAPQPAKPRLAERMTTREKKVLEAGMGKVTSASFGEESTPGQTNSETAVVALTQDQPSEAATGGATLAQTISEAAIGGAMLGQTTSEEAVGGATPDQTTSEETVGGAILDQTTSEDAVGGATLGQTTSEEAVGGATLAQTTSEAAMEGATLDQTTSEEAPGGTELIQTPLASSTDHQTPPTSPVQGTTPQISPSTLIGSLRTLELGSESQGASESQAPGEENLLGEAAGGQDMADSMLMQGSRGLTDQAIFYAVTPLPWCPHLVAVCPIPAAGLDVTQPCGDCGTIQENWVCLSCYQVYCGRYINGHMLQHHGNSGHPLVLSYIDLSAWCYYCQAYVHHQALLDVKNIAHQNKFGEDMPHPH
Put plainly: Inhibition of HDAC6 (unknown origin) at 10 nM incubated for 60 mins by microplate reader analysis relative to control.

Assay [3] concerns the target T2, Protein deacetylase HDAC6 (Homo sapiens, UniProt Q9UBN7).
T2 sequence (Q9UBN7 whole entry): T1 sequence (whole entry)
The assay is described as follows: Inhibition of HDAC6 (unknown origin) incubated for 60 mins by microplate reader analysis.

Chain of Tyrosine-protein kinase JAK2 (O60674 whole entry): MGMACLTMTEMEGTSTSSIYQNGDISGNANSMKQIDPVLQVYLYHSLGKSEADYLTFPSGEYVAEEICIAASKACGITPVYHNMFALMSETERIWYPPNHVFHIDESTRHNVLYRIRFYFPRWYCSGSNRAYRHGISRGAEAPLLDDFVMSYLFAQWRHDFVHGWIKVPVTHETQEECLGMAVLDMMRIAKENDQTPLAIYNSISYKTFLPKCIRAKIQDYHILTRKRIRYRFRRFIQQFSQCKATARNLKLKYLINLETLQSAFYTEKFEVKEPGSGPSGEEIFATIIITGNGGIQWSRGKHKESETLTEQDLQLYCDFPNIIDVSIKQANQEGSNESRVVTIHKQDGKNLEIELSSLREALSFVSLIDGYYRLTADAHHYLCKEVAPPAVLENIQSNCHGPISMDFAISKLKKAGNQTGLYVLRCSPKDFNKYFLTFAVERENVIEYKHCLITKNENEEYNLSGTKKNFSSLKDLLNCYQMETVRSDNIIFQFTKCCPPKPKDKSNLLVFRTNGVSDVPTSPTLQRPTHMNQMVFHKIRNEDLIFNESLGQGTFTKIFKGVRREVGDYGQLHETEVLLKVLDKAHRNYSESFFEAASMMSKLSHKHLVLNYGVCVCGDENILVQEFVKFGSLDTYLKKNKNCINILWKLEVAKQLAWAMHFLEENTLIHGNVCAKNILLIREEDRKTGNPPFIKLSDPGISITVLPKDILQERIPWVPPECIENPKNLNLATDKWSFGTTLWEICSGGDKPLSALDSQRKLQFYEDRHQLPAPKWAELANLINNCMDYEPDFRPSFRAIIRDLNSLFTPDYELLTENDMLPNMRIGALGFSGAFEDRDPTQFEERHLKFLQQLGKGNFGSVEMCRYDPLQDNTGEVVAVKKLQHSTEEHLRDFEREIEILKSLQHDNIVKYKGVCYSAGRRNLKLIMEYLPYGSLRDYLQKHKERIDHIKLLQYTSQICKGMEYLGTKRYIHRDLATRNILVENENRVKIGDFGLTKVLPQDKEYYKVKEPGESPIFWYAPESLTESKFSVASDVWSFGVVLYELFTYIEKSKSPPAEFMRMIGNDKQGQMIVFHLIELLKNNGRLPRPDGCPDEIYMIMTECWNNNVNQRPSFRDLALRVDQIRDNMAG

The term IC50 denotes the midpoint of a concentration-inhibition curve. By inhibition is commonly meant the share of the control response that was lost under treatment. High values mean a response far below the control, low ones a response near the control. Consider `Cc1ccc(Cn2ccc3cnc(Nc4cnn(CCCCCC(=O)NO)c4)nc32)cc1`, for which the IC50 in assay [1] is > 100 nM. In addition, the inhibition in assay [2] is 34%. As for `CS(=O)(=O)c1ccc(-n2ccc3cnc(Nc4cnn(CCCCCCC(=O)NO)c4)nc32)cc1`, the IC50 came to 15.7 nM in assay [1] and 5.9 nM in assay [3]. The like results for `O=C(CCCCCCn1cc(Nc2ncc3ccn(Cc4ccccc4)c3n2)cn1)NO` were, in that order, 51 nM and 12.5 nM. Consider `O=C(CCCCCCn1cc(Nc2ncc3ccn(Cc4ccc(F)cc4)c3n2)cn1)NO`, for which the IC50 in assay [1] is > 100 nM. The inhibition in assay [2] was 62%. The corresponding values for `O=C(CCCCCn1cc(Nc2ncc3ccn(Cc4ccc(Cl)cc4)c3n2)cn1)NO` are > 100 nM and 38%. As for `O=C(CCCCCCn1cc(Nc2ncc3ccn(-c4ccc(Cl)cc4)c3n2)cn1)NO`, the results for the 50% inhibitory concentration (IC50) in assay [1] and in assay [3] were 48.2 nM and 33.4 nM, respectively. On to `COc1cccc(Cn2ccc3cnc(Nc4cnn(CCCCCCC(=O)NO)c4)nc32)c1`, for which the results for the IC50 in assay [1] and in assay [3] were 209 nM and 28.8 nM, respectively. As for `O=C(CCCCCn1cc(Nc2ncc3ccn(Cc4ccc(F)cc4)c3n2)cn1)NO`, in assay [1], the IC50 is > 100 nM. In assay [2], this compound registered an inhibition of 46%. With `O=C(CCCCCCn1cc(Nc2ncc3ccn(CC4CC4)c3n2)cn1)NO`, the IC50 was > 100 nM in assay [1] and 16 nM in assay [3]. As for `O=C(CCCCCCn1cc(Nc2nccc(-c3cc(F)cc(F)c3)n2)cn1)NO`, the IC50 in assay [1] was 2660 nM. On to `O=C(CCCCCCn1cc(Nc2ncc3ccn(CC4CCCCC4)c3n2)cn1)NO`, for which the values for the IC50 in assay [1] and in assay [3] were 69 nM and 88 nM, respectively. The like results for `CS(=O)(=O)c1ccc(-n2ccc3cnc(Nc4cnn(CCCCCC(=O)NO)c4)nc32)cc1` were, in that order, 9.8 nM and 10.8 nM. The corresponding values for `O=C(CCCCCn1cc(Nc2ncc3ccn(-c4ccc(Br)cc4)c3n2)cn1)NO` are 17.5 nM and 11.3 nM. For `COc1ccc(Cn2ccc3cnc(Nc4cnn(CCCCCC(=O)NO)c4)nc32)cc1`, in assay [1], the IC50 was > 100 nM. The compound also had an inhibition in assay [2] of 46%. The like results for `O=C(CCCCCn1cc(Nc2ncc3ccn(CCc4ccccc4)c3n2)cn1)NO` were, in that order, > 100 nM and 41%. As to `O=C(CCCCCCn1cc(Nc2ncc3ccn(Cc4ccccc4Cl)c3n2)cn1)NO`, the IC50 in assay [1] came to 30.8 nM; in assay [3], 41.5 nM. For the compound `O=C(CCCCCCn1cc(Nc2ncc3ccn(-c4ccc(F)cc4)c3n2)cn1)NO`, the IC50 in assay [1] amounted to 32.9 nM; in assay [3], 21.6 nM. With `O=C(CCCCCCn1cc(Nc2ncc3ccn(Cc4ccc(Cl)cc4)c3n2)cn1)NO`, the IC50 in assay [1] was > 100 nM. Besides, the inhibition in assay [2] stood at 39%. With `O=C(CCCCCCn1cc(Nc2ncc3ccn(CCc4ccccc4)c3n2)cn1)NO`, the IC50 in assay [1] was > 100 nM. Further, the inhibition in assay [2] stood at 49%. Take `O=C(CCCCCCn1cc(Nc2ncc3ccn(Cc4cccc(Cl)c4)c3n2)cn1)NO`: the figures for the IC50 in assay [1] and in assay [3] were 39.8 nM and 36.8 nM, respectively. The like results for `O=C(CCCCCCn1cc(Nc2ncc3ccn(-c4ccc(Br)cc4)c3n2)cn1)NO` were, in that order, 54.8 nM and 20.2 nM. The corresponding values for `O=C(CCCCCn1cc(Nc2ncc3ccn(Cc4cccc(Cl)c4)c3n2)cn1)NO` are 17.7 nM and 34.4 nM. As for `O=C(CCCCCCn1cc(Nc2nc(Nc3cccc(Cl)c3)c3ccccc3n2)cn1)NO`, the IC50 in assay [1] stood at 9400 nM.

For the compound `O=C(CCCCCn1cc(Nc2ncc3ccn(Cc4ccccc4)c3n2)cn1)NO`, the values for the half-maximal inhibitory concentration (IC50) in assay [1] and in assay [3] were 33 nM and 13.8 nM, respectively. The corresponding values for `O=C(CCCCCCn1cc(Nc2ncc3ccn(C4CCCC4)c3n2)cn1)NO` are > 100 nM and 22 nM. As to `COc1cccc(Cn2ccc3cnc(Nc4cnn(CCCCCC(=O)NO)c4)nc32)c1`, the IC50 in assay [1] is 124 nM; in assay [3], 37.6 nM.

With `O=C(CCCCCn1cc(Nc2ncc3ccn(Cc4ccccc4Cl)c3n2)cn1)NO`, the figures for the IC50 in assay [1] and in assay [3] were 24.8 nM and 45 nM, respectively.

Source of the values: ChEMBL document CHEMBL5038570, “Discovery of Novel Pyrrolo[2,3-d]pyrimidine-based Derivatives as Potent JAK/HDAC Dual Inhibitors for the Treatment of Refractory Solid Tumors” (J Med Chem, 2022).
